Assays:
[1] = Measurement of photophysical properties in MOPS buffer; type: physicochemical; details: for λ(1)max, λmax of one-photon absorption spectra: MOPS buffer (30 mM MOPS, 100 mM KCl, pH 7.4); for Φδ, two-photon action cross section / λ(2)max, λmax of two-photon excitation spectra / λfl max, λmax of one-photon emission spectra / 10^−4 ε, molar extinction coefficient (in parentheses) / Φ, fluorescence quantum yield / δ, peak two-photon cross section per photon: MOPS buffer pH 7.4; for 10^−4 ε, molar extinction coefficient (in parentheses): printed as 10^−4 ε; for Φ, fluorescence quantum yield / δ, peak two-photon cross section per photon: ±15%
Protocol: (§1) Photophysical properties of the two-photon fluorescent probe (SSH-Mito) (Example 1) and the compound represented by Formula 6 were measured in MOPS buffer (30 mM MOPS, 100 mM KCl, pH 7.4).

[2] = Thiol selectivity and pH dependence of fluorescence response in MOPS buffer
Protocol: White and black bars represent the relative fluorescence intensity (Fyellow/Fblue) of SSH-Mito (5 μM) in the presence of various analytes before and after addition of GSH, respectively. Each spectrum was acquired 2 hours after addition of various analytes at 37° C.
The excitation wavelength was 380 nm.
White and black bars represent the relative fluorescence intensity before and after addition of GSH, respectively.

[3] = Emission ratio change (Rmax/Rmin) before and after addition of GSH; details: before and 2 hours after addition of 10 mM GSH
Protocol: as §1

HeLa cells = assay: Cytotoxicity, viability by CCK-8 kit; type: cell-based; details: incubated 2 hours
Protocol: The cells were incubated with SSH-Mito for 2 hours.

thiols in HeLa cells = assay: Ratiometric two-photon microscopy imaging of thiols in HeLa cells; type: cell-based
Protocol: The images were acquired using 740 nm excitation and fluorescence emission windows of 425-475 nm (blue) and 525-575 nm (yellow). Scale bar: 20 μm. The cells shown are representative images obtained from repeated experiments (n=5).
It was tested if the two-photon fluorescent probe of the present invention can monitor the change of thiols in a living cell.
When the cells were pre-incubated for 1 day with α-lipolic acid which increases GSH production (FIG. 6 (b)), the Fyellow/Fblue ratio increased to 2.64. And, when treated with N-ethylmaleimide (NEM), a well-known thiol blocking agent, the Fyellow/Fblue ratio decreased to 0.77 (FIG. 6 (c)).

[4] = tested on: thiols in rat hippocampal slices; assay: Ratiometric two-photon microscopy imaging of rat hippocampal slices
Protocol: (a, d) Bright-field images of the CA1 and CA3 regions. (b, e) Ratiometric TPM images of rat hippocampal slices that were (b) not treated and (e) pretreated with NEM (100 μM) for 30 minutes before labeling with SSH-Mito. Ten TPM images were accumulated along the z-axis direction at depths of about 90-190 μm (10×). (c, f) Enlarged (40×) images of the red boxes in (b) and (e) at a depth of 120 μm. The two-photon excited fluorescence (TPEF) was collected in two channels (blue=425-475 nm, yellow=525-575 nm) upon excitation at 740 nm with a femtosecond (fs) pulse. Scale bars: 300 μm (a, d) and 75 μm (c, f)).
In order to investigate the utility of two-photon fluorescent probe of the present invention in tissue imaging, rat hippocampal slices were monitored.
Since the structure of the brain tissue is known to be inhomogeneous throughout its entire depth, 10 TPM images were obtained at depths of 90-190 μm and they were combined to visualize the overall thiol distribution. […] When the tissue was treated with 100 μM NEM for 30 minutes, the ratio decreased to 0.85 (FIG. 8 (f)).

[5] = Measurement of water solubility by fluorescence intensity versus concentration; type: physicochemical; details: 30 mM MOPS, 100 mM KCl, pH 7.4; 0.2% DMSO
Protocol: A small amount of the two-photon fluorescent probe (SSH-Mito) prepared in Example 1 was dissolved in DMSO to prepare a stock solution (1.0×10^−2 M). The solution was diluted to 6.0×10^−3 to 6.0×10^−5 M and added to a cuvette containing 3.0 mL of a buffer (30 mM MOPS, 100 mM KCl, pH 7.4) using a microsyringe. In all cases, the concentration of DMSO in water was maintained at 0.2%. […] The maximum concentration in the linear region is determined as the solubility of the two-photon fluorescent probe.

CNc1ccc2cc(-c3nc4ccc(C(=O)NCC[P+](c5ccccc5)(c5ccccc5)c5ccccc5)cc4s3)ccc2c1.[Br-] [Compound No. 6]
λ(1)max, λmax of one-photon absorption spectra [1]: 383 nm | Φδ, two-photon action cross section [1]: 55 | λ(2)max, λmax of two-photon excitation spectra [1]: 750 nm | λfl max, λmax of one-photon emission spectra [1]: 545 nm | 10^−4 ε, molar extinction coefficient (in parentheses) [1]: 1.50 M^−1 cm^−1 | Φ, fluorescence quantum yield [1]: 0.12 | δ, peak two-photon cross section per photon [1]: 550 GM

CN(C(=O)OCCSSCCN)c1ccc2cc(-c3nc4ccc(C(=O)NCC[P+](c5ccccc5)(c5ccccc5)c5ccccc5)cc4s3)ccc2c1 [SSH-Mito]
selectivity for GSH over other analytes ([2]; 5 μM probe, 10 mM analytes, 30 mM MOPS buffer pH 7.4): high selectivity for GSH | fluorescence response toward compounds containing thiol groups ([2]; GSH, Cys, Hcy, DTT, 2-ME, 2-AET): strong responses | effect of pH on fluorescence ([2]; absence and presence of 10 mM GSH, MOPS buffer): pH-insensitive at biologically relevant pH | fluorescence response toward analytes without thiol groups ([2]; amino acids (Glu, Ser, Val, Met, Ala, Ile), metal ions (Na+, K+, Ca+, Mg2+, Zn2+) and H2O2): negligible responses | Rmax/Rmin, emission ratio (F525-575/F425-475) conversion factor, one-photon processes ([3]; one-photon): 45 | Rmax/Rmin, emission ratio conversion factor, two-photon processes (in parentheses) ([3]; two-photon): 40 | viability of HeLa cells (cytotoxicity) (HeLa cells): adequate for detecting thiols in living cells | Fyellow/Fblue ratio (thiols in HeLa cells; HeLa cells pre-incubated for 1 day with α-lipolic acid): 2.64 | Fyellow/Fblue ratio (thiols in HeLa cells; HeLa cells treated with N-ethylmaleimide (NEM)): 0.77 | average emission ratio (Fyellow/Fblue) (thiols in HeLa cells; HeLa cells, TP excitation at 740 nm, no pretreatment): 1.24 | average emission ratio ([4]; CA1 region, depth of 120 μm, not treated): 1.66 | average emission ratio ([4]; tissue treated with 100 μM NEM for 30 minutes): 0.85 | solubility in the buffer [5]: ~5.0 µM | λ(1)max, λmax of one-photon absorption spectra [1]: 338 nm | Φδ, two-photon action cross section [1]: 80 | λ(2)max, λmax of two-photon excitation spectra [1]: 740 nm | λfl max, λmax of one-photon emission spectra [1]: 462 nm | 10^−4 ε, molar extinction coefficient (in parentheses) [1]: 2.05 M^−1 cm^−1 | Φ, fluorescence quantum yield [1]: 0.82 | δ, peak two-photon cross section per photon [1]: 95 GM

Reference: patent US9005917B2, “Variable color two-photon fluorescent probe, method for imaging thiol activation in mitochondrion using same, and method for manufacturing the variable color two-photon fluorescent probe” (Ajou University Industry-Academic Cooperation Foundation, priority 2011, dated 2015)
